Measurements from the supplement of paper PMC10307832.

How the values were obtained:
Assay in all cases: relative viability (nuclei count vs DMSO), 5 days (fraction); higher = more cells survive
IPA-3 + Decitabine = compound: C1=CC=C2C(=C1)C=CC(=C2SSC3=C(C=CC4=CC=CC=C43)O)O [IPA-3] + Nc1ncn([C@H]2C[C@H](O)[C@@H](CO)O2)c(=O)n1 [Decitabine] (partner 2 µM)
Outline: (§1)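 After 5 days of treatment, lung cancer cells in 1536-well plates were fixed and stained in a single step (final 0.05% Triton X-100, 1% formaldehyde, 1 ug/ml Hoechst) and their nuclei counted on 4× images. Treatment had been applied by pin tool the day after seeding as one drug alone or as a fixed anchor-drug dose with five library-drug doses (not always all listed) in √10 steps. Relative viability is the nuclei count of treated wells divided by that of vehicle wells, and values are medians of duplicate plates.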

Doramapimod + Foretinib = compound: Cc1ccc(-n2nc(C(C)(C)C)cc2NC(=O)Nc2ccc(OCCN3CCOCC3)c3ccccc23)cc1 [Doramapimod] + COc1cc2c(Oc3ccc(NC(=O)C4(C(=O)Nc5ccc(F)cc5)CC4)cc3F)ccnc2cc1OCCCN1CCOCC1 [Foretinib] (partner 0.25 µM)
Outline: as §1

Doramapimod + Bortezomib = compound: Cc1ccc(-n2nc(C(C)(C)C)cc2NC(=O)Nc2ccc(OCCN3CCOCC3)c3ccccc23)cc1 [Doramapimod] + CC(C)C[C@H](NC(=O)[C@H](Cc1ccccc1)NC(=O)c1cnccn1)B(O)O [Bortezomib] (partner 0.002 µM)
Outline: as §1

Cell Line | relative viability (IPA-3 + Decitabine; first compound 0.2 µM) | relative viability (IPA-3 + Decitabine; first compound 0.6325 µM) | relative viability (IPA-3 + Decitabine; first compound 2 µM) | relative viability (IPA-3 + Decitabine; first compound 6.325 µM) | relative viability (IPA-3 + Decitabine; first compound 20 µM) | relative viability (Doramapimod + Foretinib; first compound 0.02 µM) | relative viability (Doramapimod + Foretinib; first compound 0.06325 µM) | relative viability (Doramapimod + Foretinib; first compound 0.2 µM) | relative viability (Doramapimod + Foretinib; first compound 0.6325 µM) | relative viability (Doramapimod + Foretinib; first compound 2 µM) | relative viability (Doramapimod + Bortezomib; first compound 0.02 µM) | relative viability (Doramapimod + Bortezomib; first compound 0.06325 µM) | relative viability (Doramapimod + Bortezomib; first compound 0.2 µM) | relative viability (Doramapimod + Bortezomib; first compound 0.6325 µM) | relative viability (Doramapimod + Bortezomib; first compound 2 µM)
NCI-H522 | 0.703 | 0.642 | 0.534 | 0.689 | 0.765 | – | – | – | – | – | – | – | – | – | –
NCI-H1944 | 0.468 | 0.41 | 0.456 | 0.481 | 0.412 | 0.782 | 0.918 | 0.883 | 0.957 | 0.715 | – | – | – | – | –
NCI-H727 | 0.783 | 0.916 | 0.71 | 0.867 | 0.997 | 0.665 | 0.857 | 0.857 | 1.05 | 0.801 | 0.853 | 0.818 | 0.775 | 0.705 | 0.87
NCI-H1650 | 0.44 | 0.396 | 0.386 | 0.349 | 0.374 | 1.06 | 1.26 | 1.36 | 1.41 | 1.21 | 0.232 | 0.23 | 0.194 | 0.191 | 0.189
HCC-827 | 0.359 | 0.34 | 0.33 | 0.312 | 0.327 | 1.07 | 1.06 | 1.13 | 1.04 | 0.703 | 0.963 | 1.03 | 1.01 | 0.931 | 0.969
HCC-366 | 0.399 | 0.35 | 0.349 | 0.335 | 0.321 | 0.617 | 0.874 | 0.899 | 0.876 | 0.821 | 1.02 | 1 | 1.09 | 1.14 | 1.01
HARA | 0.474 | 0.517 | 0.544 | 0.578 | 0.621 | 0.88 | 0.841 | 0.767 | – | 0.746 | 1.15 | 1.03 | 1.14 | 1.04 | 0.994
NCI-H322M | 0.679 | 0.654 | 0.749 | 0.663 | 0.718 | 1.11 | 0.913 | 1.08 | 1.05 | 1.05 | 1.26 | 1.43 | 1.18 | 1.26 | 1.35
LXF-289 | 0.368 | 0.368 | 0.345 | 0.37 | 0.422 | 0.955 | 1.04 | 0.999 | 0.955 | 0.928 | 1.01 | 1.02 | 1.03 | 1.02 | 0.907
PC-3 [JPC-3] | 0.849 | 0.837 | 0.813 | 0.779 | 0.855 | 1.14 | 1.11 | 1.15 | 1.23 | 1.1 | 0.909 | 0.926 | 0.832 | 0.939 | 0.943
CAL-12T | – | – | – | – | – | 1.11 | 1.15 | 1.03 | 1.1 | 0.983 | 1.01 | 1.11 | 1.16 | 1 | 0.818
COR-L 105 | 0.652 | 0.609 | 0.657 | 0.66 | 0.649 | 1.03 | 0.834 | 1.04 | 1.34 | 0.917 | 0.848 | 0.772 | 0.959 | 0.807 | 0.779
NCI-H2347 | 0.629 | 0.611 | 0.657 | 0.622 | 0.603 | – | 1.03 | 1.1 | 0.861 | 1.11 | – | 0.72 | 1.19 | 1.07 | 0.963
NCI-H2126 | 0.556 | 0.624 | 0.595 | 0.587 | 0.622 | 1.21 | 0.988 | 1.14 | 1.34 | 1.2 | 1.2 | 1.14 | 1.11 | 1.16 | 1.07
NCI-H838 | 0.579 | 0.444 | 0.456 | 0.398 | 0.443 | 1.01 | 0.993 | 1.08 | 1.21 | 1.01 | 1.05 | 0.965 | 1.01 | 1.22 | 0.73
A549 | 0.379 | 0.278 | 0.128 | 0.274 | 0.179 | 0.91 | 1 | 0.992 | 1.06 | 0.875 | – | – | – | – | –
NCI-H1648 | 0.529 | 0.465 | 0.4 | 0.59 | 0.525 | – | – | – | – | – | – | – | – | – | –
NCI-H1623 | – | – | – | – | – | 0.95 | 0.791 | 0.86 | 0.743 | 0.746 | – | – | – | – | –
SK-LU-1 | 0.708 | 0.497 | 0.658 | 0.689 | 0.651 | 0.805 | 0.82 | 0.847 | 0.873 | 0.759 | 1.41 | 1.37 | 1.51 | – | 1.15
NCI-H2085 | 0.58 | 0.568 | 0.56 | 0.502 | 0.459 | 1.03 | 0.85 | 0.707 | 1.21 | 1.03 | 1.03 | 1 | 0.952 | 1.06 | 0.945
NCI-H460 | 0.65 | 0.41 | 0.492 | 0.465 | 0.324 | 1.08 | 1.04 | 1.02 | 1.17 | 0.973 | 0.961 | 1.12 | 1.11 | 1.24 | 1.05
Calu-6 | – | – | – | – | – | 0.903 | 0.914 | 0.941 | 0.942 | 0.919 | 1.05 | 1.03 | 1.02 | 1.11 | 1.03
RERF-LC-KJ | 0.896 | 0.639 | 0.701 | 0.704 | 0.689 | 0.87 | 0.955 | 0.884 | 0.9 | 0.869 | 1.19 | 1.05 | 1.29 | 1.07 | 1.04
LCLC-103H | 0.703 | 0.684 | 0.749 | 0.748 | 0.638 | 0.627 | 0.691 | 0.598 | 0.857 | 0.73 | 1.19 | 0.986 | 1.04 | 1.2 | 1.03
HCC-15 | 0.754 | 0.572 | 0.612 | 0.61 | 0.629 | 1.07 | 1.01 | 0.964 | – | 0.953 | 1.02 | 1.05 | 1.04 | 0.801 | 0.907
